# ChEMBL document CHEMBL3885861, “Open TG-GATES”
# Species: Rattus norvegicus
# Assay: Open TG-GATES - Regimen: Single
# Format: toxicity, organism-based, Sprague-Dawley
# Set-up: regimen Single, gender Male, age 6 weeks
# Details: in vivo, po, route gavage; for Bas / Eos / Ht / Lym / MCH / Mono / Neu / RBC / Ret: tissue Blood; for KIDNEY_L / KIDNEY_R / KIDNEY_TOTAL: tissue Kidney; for LIVER: tissue Liver; for ALP / ALT / AST / CRE / Ca / DBIL / IP / K / LDH / Na / PL / RALB / TBIL / TC / TG / TP / gamma-GTP: tissue Plasma
# [1] = 600 mg/kg, 3 h, dose level Middle
# [2] = 600 mg/kg, 6 h, dose level Middle
# [3] = 600 mg/kg, 9 h, dose level Middle
# [4] = 600 mg/kg, 24 h, dose level Middle
# [5] = 2000 mg/kg, 3 h, dose level High
# [6] = 2000 mg/kg, 6 h, dose level High
# [7] = 2000 mg/kg, 9 h, dose level High
# [8] = 2000 mg/kg, 24 h, dose level High
smiles,measurement,setting,value
COc1cc2ncnc(Nc3ccc(F)c(Cl)c3)c2cc1OCCCN1CCOCC1 [GEFITINIB],Bas,[1],0%
same,Eos,[1],0.6%
same,Ht,[1],37%
same,Lym,[1],75%
same,MCH,[1],21.1 pg
same,Mono,[1],2.4%
same,Neu,[1],21%
same,RBC,[1],588 x10_4/ul
same,Ret,[1],9.3%
same,KIDNEY_L,[1],1 g
same,KIDNEY_R,[1],1 g
same,KIDNEY_TOTAL,[1],1.9 g
same,LIVER,[1],9.7 g
same,ALP,[1],1687 IU/L
same,ALT,[1],58.6 IU/L
same,AST,[1],80.8 IU/L
same,CRE,[1],0.1 mg/dL
same,Ca,[1],9.7 mg/dL
same,DBIL,[1],0.016 mg/dL
same,IP,[1],8.6 mg/dL
same,K,[1],3.9 meq/L
same,LDH,[1],191.4 IU/L
same,Na,[1],141.8 meq/L
same,PL,[1],141 mg/dL
same,RALB,[1],3.9 g/dL
same,TBIL,[1],0.074 mg/dL
same,TC,[1],87.2 mg/dL
same,TG,[1],49.7 mg/dL
same,TP,[1],5.4 g/dL
same,gamma-GTP,[1],1 IU/L
same,TERMINAL_BW,[2],210.3 g
same,Bas,[2],0%
same,Eos,[2],0.6%
same,Ht,[2],36.6%
same,Lym,[2],80.2%
same,MCH,[2],21.1 pg
same,Mono,[2],2.6%
same,Neu,[2],15.6%
same,RBC,[2],582 x10_4/ul
same,Ret,[2],8.9%
same,KIDNEY_L,[2],0.9 g
same,KIDNEY_R,[2],0.9 g
same,KIDNEY_TOTAL,[2],1.9 g
same,LIVER,[2],9.1 g
same,ALP,[2],1267.2 IU/L
same,ALT,[2],59.4 IU/L
same,AST,[2],82 IU/L
same,CRE,[2],0.1 mg/dL
same,Ca,[2],9.8 mg/dL
same,DBIL,[2],0.016 mg/dL
same,IP,[2],8.8 mg/dL
same,K,[2],4 meq/L
same,LDH,[2],200.4 IU/L
same,Na,[2],141.3 meq/L
same,PL,[2],152.8 mg/dL
same,RALB,[2],3.9 g/dL
same,TBIL,[2],0.078 mg/dL
same,TC,[2],96 mg/dL
same,TG,[2],42.8 mg/dL
same,TP,[2],5.4 g/dL
same,gamma-GTP,[2],1 IU/L
same,TERMINAL_BW,[3],212.8 g
same,Bas,[3],0%
same,Eos,[3],0.8%
same,Ht,[3],37%
same,Lym,[3],77.6%
same,MCH,[3],21.1 pg
same,Mono,[3],3%
same,Neu,[3],18%
same,RBC,[3],587 x10_4/ul
same,Ret,[3],9.2%
same,KIDNEY_L,[3],0.9 g
same,KIDNEY_R,[3],1 g
same,KIDNEY_TOTAL,[3],1.9 g
same,LIVER,[3],8.9 g
same,ALP,[3],1338.6 IU/L
same,ALT,[3],51 IU/L
same,AST,[3],71.2 IU/L
same,CRE,[3],0.2 mg/dL
same,Ca,[3],9.9 mg/dL
same,DBIL,[3],0.016 mg/dL
same,IP,[3],9.1 mg/dL
same,K,[3],4.2 meq/L
same,LDH,[3],160.6 IU/L
same,Na,[3],143.1 meq/L
same,PL,[3],153 mg/dL
same,RALB,[3],3.8 g/dL
same,TBIL,[3],0.076 mg/dL
same,TC,[3],96 mg/dL
same,TG,[3],46.7 mg/dL
same,TP,[3],5.4 g/dL
same,gamma-GTP,[3],0.9 IU/L
same,TERMINAL_BW,[4],211.6 g
same,Bas,[4],0%
same,Eos,[4],0.8%
same,Ht,[4],40%
same,Lym,[4],66.2%
same,MCH,[4],20.7 pg
same,Mono,[4],3.6%
same,Neu,[4],29%
same,RBC,[4],625.6 x10_4/ul
same,Ret,[4],7.6%
same,KIDNEY_L,[4],0.9 g
same,KIDNEY_R,[4],1 g
same,KIDNEY_TOTAL,[4],1.9 g
same,LIVER,[4],8.9 g
same,ALP,[4],1287.2 IU/L
same,ALT,[4],42 IU/L
same,AST,[4],73.8 IU/L
same,CRE,[4],0.2 mg/dL
same,DBIL,[4],0.008 mg/dL
same,IP,[4],8.9 mg/dL
same,K,[4],4.3 meq/L
same,LDH,[4],178.6 IU/L
same,Na,[4],142.8 meq/L
same,PL,[4],186.2 mg/dL
same,RALB,[4],4 g/dL
same,TBIL,[4],0.058 mg/dL
same,TC,[4],126.4 mg/dL
same,TG,[4],65 mg/dL
same,TP,[4],5.5 g/dL
same,gamma-GTP,[4],1.2 IU/L
same,TERMINAL_BW,[5],214.3 g
same,Bas,[5],0%
same,Eos,[5],0.6%
same,Ht,[5],37.2%
same,Lym,[5],68%
same,MCH,[5],21.3 pg
same,Mono,[5],3%
same,Neu,[5],27.6%
same,RBC,[5],591 x10_4/ul
same,Ret,[5],9.4%
same,KIDNEY_L,[5],0.9 g
same,KIDNEY_R,[5],0.9 g
same,KIDNEY_TOTAL,[5],1.8 g
same,LIVER,[5],9.4 g
same,ALP,[5],1590.6 IU/L
same,ALT,[5],71 IU/L
same,AST,[5],87.4 IU/L
same,CRE,[5],0.1 mg/dL
same,Ca,[5],9.9 mg/dL
same,DBIL,[5],0.012 mg/dL
same,IP,[5],9.1 mg/dL
same,K,[5],3.9 meq/L
same,LDH,[5],236 IU/L
same,Na,[5],141.9 meq/L
same,PL,[5],145.4 mg/dL
same,RALB,[5],3.9 g/dL
same,TBIL,[5],0.072 mg/dL
same,TC,[5],91.2 mg/dL
same,TG,[5],56.5 mg/dL
same,TP,[5],5.4 g/dL
same,gamma-GTP,[5],0.9 IU/L
same,TERMINAL_BW,[6],213.7 g
same,Bas,[6],0%
same,Eos,[6],0.8%
same,Ht,[6],37.3%
same,Lym,[6],76.4%
same,MCH,[6],21.3 pg
same,Mono,[6],3.2%
same,RBC,[6],589.2 x10_4/ul
same,Ret,[6],9%
same,KIDNEY_L,[6],0.9 g
same,KIDNEY_R,[6],1 g
same,KIDNEY_TOTAL,[6],1.9 g
same,LIVER,[6],9.1 g
same,ALP,[6],1266.2 IU/L
same,ALT,[6],56.2 IU/L
same,AST,[6],78.6 IU/L
same,CRE,[6],0.2 mg/dL
same,Ca,[6],9.6 mg/dL
same,DBIL,[6],0.024 mg/dL
same,IP,[6],9.1 mg/dL
same,K,[6],3.9 meq/L
same,LDH,[6],184.6 IU/L
same,Na,[6],140.7 meq/L
same,PL,[6],150.8 mg/dL
same,RALB,[6],3.8 g/dL
same,TBIL,[6],0.092 mg/dL
same,TC,[6],99.6 mg/dL
same,TG,[6],30 mg/dL
same,TP,[6],5.4 g/dL
same,gamma-GTP,[6],0.9 IU/L
same,TERMINAL_BW,[7],212.3 g
same,Bas,[7],0%
same,Eos,[7],0.2%
same,Ht,[7],37.4%
same,Lym,[7],76.2%
same,MCH,[7],21.1 pg
same,Mono,[7],2.4%
same,Neu,[7],20.4%
same,RBC,[7],592.6 x10_4/ul
same,Ret,[7],9.3%
same,KIDNEY_L,[7],0.9 g
same,KIDNEY_R,[7],1 g
same,KIDNEY_TOTAL,[7],1.9 g
same,LIVER,[7],8.6 g
same,ALP,[7],1162 IU/L
same,ALT,[7],56.4 IU/L
same,AST,[7],77.4 IU/L
same,CRE,[7],0.1 mg/dL
same,Ca,[7],9.6 mg/dL
same,DBIL,[7],0.028 mg/dL
same,IP,[7],8.7 mg/dL
same,K,[7],3.8 meq/L
same,LDH,[7],210.6 IU/L
same,Na,[7],142.6 meq/L
same,PL,[7],148.2 mg/dL
same,RALB,[7],3.8 g/dL
same,TBIL,[7],0.1 mg/dL
same,TC,[7],98 mg/dL
same,TG,[7],29 mg/dL
same,TP,[7],5.4 g/dL
same,gamma-GTP,[7],0.9 IU/L
same,TERMINAL_BW,[8],204 g
same,Bas,[8],0%
same,Eos,[8],0.5%
same,Ht,[8],40.5%
same,Lym,[8],59.8%
same,MCH,[8],21 pg
same,Mono,[8],3.5%
same,Neu,[8],35.8%
same,RBC,[8],632 x10_4/ul
same,Ret,[8],8.1%
same,KIDNEY_L,[8],0.9 g
same,KIDNEY_R,[8],0.9 g
same,KIDNEY_TOTAL,[8],1.9 g
same,LIVER,[8],8.6 g
same,ALP,[8],1061.5 IU/L
same,ALT,[8],76.8 IU/L
same,AST,[8],126 IU/L
same,CRE,[8],0.2 mg/dL
same,DBIL,[8],0.03 mg/dL
same,IP,[8],8.4 mg/dL
same,K,[8],3.5 meq/L
same,LDH,[8],272 IU/L
same,Na,[8],143.2 meq/L
same,PL,[8],144.8 mg/dL
same,RALB,[8],3.9 g/dL
same,TBIL,[8],0.1 mg/dL
same,TC,[8],111.2 mg/dL
same,TG,[8],39.6 mg/dL
same,TP,[8],5.4 g/dL
same,gamma-GTP,[8],1.4 IU/L
